Experiments:
[1] = Radioactive metabolites in urine and bile after IV administration of [14C] compound (I) to bile-duct cannulated monkeys; assay type: in vivo, monkey; conditions: IV infusion 2 mg/kg; for Metabolites in BDC-Monkeys (0-72 hr), Bile, % Dose / Metabolites in BDC-Monkeys (0-72 hr), Bile, % Rad: bile 0-72 hr; for Metabolites in BDC-Monkeys (0-72 hr), Urine, % Dose / Metabolites in BDC-Monkeys (0-72 hr), Urine, % Rad (% of total radioactivity in sample): urine 0-72 hr
Procedure: A separate bile-duct cannulated (BDC) monkey study was also conducted. […]
(§1) The C-14 label was on the carbon-2 of the thiazole ring.
(§2) HPLC was performed on an Agilent 1100™ system equipped with binary pumps, autoinjector, and a column heater. A Phenomenex Synergy Polar-RP® column (4.6×250 mm, 5 micron) was used for metabolite separation. All HPLC analyses were performed at 1 mL/min flow rate at 35° C. The HPLC mobile phase consisted of (A) water with 0.1% formic acid and (B) acetonitrile with 0.1% formic acid.
(§3) Each fraction of column eluent was evaporated to dryness on a Savant Speed-Vac (Savant Instruments Inc., Holbrook, N.Y.) and counted for radioactivity with a Packard Top Count® microplate scintillation analyzer (Packard Biosciences, Downers Grove, Ill.).
(§4) The pooled monkey and human urine samples (3-5 mL) were extracted with 2 volumes of acetonitrile/acetone (1:1). The mixtures were vortex mixed, sonicated and centrifuged at 3500 rpm for 10 min. The supernatants were evaporated to dryness. The residue was suspended in 0.3-0.5 mL of 30% acetonitrile in water and centrifuged at 13000 rpm for 5 min. Aliquots of the supernatants were injected onto the HPLC or analyzed by LSC for radioactivity recovery. Pooled urine samples from BDC monkeys and rats were centrifuged at 13000 rpm for 10 min and injected onto the HPLC for profiling without further treatment.
A pooled bile sample (0-72 h) from BDC monkeys was diluted fifteen-fold with 20% acetonitrile in water with 0.1% formic acid. The diluted sample was centrifuged at 13000 rpm for 5 min. Aliquots of the supernatant was injected onto HPLC or analyzed by LSC for radioactivity recovery.
(§5) The LC/MS system used for analysis of plasma, urine, bile, and fecal samples consisted of an Agilent 1100™ HPLC system connected to a Finnigan LCQ-DecaXP mass spectrometer. Samples were analyzed using positive electrospray ionization. The capillary temperature used for analysis was 320° C., and the nitrogen gas flow rate, spray current, and voltages were adjusted to give maximum sensitivity. The HPLC conditions were described in section 3.3.1.
Counts per min (CPM) were determined on a Packard TopCount NXT microplate scintillation and luminescence counter. For each injection, the average CPM value (2-4 CPM) obtained from fractions between 2-3 min (column void) in the chromatogram was subtracted from the CPM value of each fraction. Biotransformation profiles were prepared by plotting the background subtracted CPM values against time-after-injection. Radioactivity peaks in the biotransformation profiles were reported as a percentage of the total radioactivity (after background subtraction) collected during the entire HPLC run.

[2] = Radioactive metabolites in plasma, urine and feces after single oral dose of [14C] compound (I) to monkeys; assay type: in vivo, cynomolgus monkey; conditions: for % Distribution of radioactive metabolites in pooled plasma, Monkey (4 h): oral 10 mg/kg [14C] compound (I), plasma 4 h; for Metabolites in Feces (0-168 hr), Monkey, % Dose / Metabolites in Feces (0-168 hr), Monkey, % Rad / Metabolites in Urine (0-168 hr), Monkey, % Dose / Metabolites in Urine (0-168 hr), Monkey, % Rad: oral 10 mg/kg; for Metabolites in Feces (0-168 hr), Monkey, % Dose / Metabolites in Feces (0-168 hr), Monkey, % Rad: pooled fecal extracts 0-168 hr; for Metabolites in Urine (0-168 hr), Monkey, % Dose / Metabolites in Urine (0-168 hr), Monkey, % Rad: pooled urine 0-168 hr
Procedure: A separate bile-duct cannulated (BDC) monkey study was also conducted.
Plasma samples were segregated by collection time and equal volumes of individual plasma samples at a given time point were combined for biotransformation profiling.
as §1, §2, §3
The volumes of pooled plasma processed for HPLC analysis for rat, monkey and human ranged between 1.5 and 8.0 mL. Pooled plasma samples were extracted with methanol/acetonitrile (1:1) at a ratio of 2 volumes solvent to 1 volume of plasma. The mixtures were vortex mixed, sonicated for 5 min, and centrifuged at 3500 rpm for 10 min. The supernatants were transferred into new tubes. The remaining pellets were extracted two more times with 3 mL of methanol/acetonitrile (1:1). The supernatants were combined and evaporated to dryness in a Savant Speed-Vac (Savant Instruments, Inc., Holbrook, N.Y.). The residue was reconstituted into 0.35 to 0.45 mL of 30% acetonitrile in water, vortex mixed and centrifuged at 13000 rpm for 5 min (American Scientific Products Biofuge A centrifuge, Heraeus Sepatech GmbH, Germany). The supernatant was injected onto the HPLC for profiling. Aliquots of the reconstituted samples (30 μl) were also counted on the liquid scintillation counter (LSC) to determine the recovery of radioactivity.
as §4
The amount of fecal homogenate used for analysis was 0.20, 0.19 and 0.51 g for rat, monkey and human, respectively. Each pooled fecal homogenate was extracted by addition of 3 volumes of acetonitrile/methanol (1:1) to 1 volume of fecal homogenate and mixed on a vortex mixer. The mixture was sonicated for 5 min and then centrifuged at 3000 rpm for 10 min. The supernatants were removed and saved. The extraction was repeated two additional times and the supernatants were combined and evaporated to dryness on a Savant Speed-Vac. […] An aliquot of the supernatant was injected onto the HPLC or analyzed by LSC for radioactivity recovery.
as §5
Counts per min (CPM) were determined on a Packard TopCount NXT microplate scintillation and luminescence counter. For each injection, the average CPM value (2-4 CPM) obtained from fractions between 2-3 min (column void) in the chromatogram was subtracted from the CPM value of each fraction.

| Compound | Metabolites in BDC-Monkeys (0-72 hr), Bile, % Dose [1] | Metabolites in BDC-Monkeys (0-72 hr), Bile, % Rad [1] | % Distribution of radioactive metabolites in pooled plasma, Monkey (4 h) [2] | Metabolites in Feces (0-168 hr), Monkey, % Dose [2] | Metabolites in Feces (0-168 hr), Monkey, % Rad [2] | Metabolites in Urine (0-168 hr), Monkey, % Dose [2] | Metabolites in Urine (0-168 hr), Monkey, % Rad [2] | Metabolites in BDC-Monkeys (0-72 hr), Urine, % Dose [1] | Metabolites in BDC-Monkeys (0-72 hr), Urine, % Rad (% of total radioactivity in sample) [1] |
| --- | --- | --- | --- | --- | --- | --- | --- | --- | --- |
| Cc1nc(Nc2ncc(C(=O)Nc3c(C)cccc3Cl)s2)cc(N2CCNCC2)n1 [M4 (II)] | 0.5% | 0.7% | 3.0% | 2.9% | 3.8% | 0.05% | 1.7% | – | – |
| Cc1nc(Nc2ncc(C(=O)Nc3c(C)cccc3Cl)s2)cc(N2CC[N+]([O-])(CCO)CC2)n1 [M5 (III)] | 5.0% | 7.4% | 2.6% | – | – | 1.1% | 35.8% | 7.0% | 70.7% |
| Cc1nc(Nc2ncc(C(=O)Nc3c(C)cccc3Cl)s2)cc(N2CCN(CC(=O)O)CC2)n1 [M6 (IV), 2-(4-(6-(5-((2-Chloro-6-methylphenyl)carbamoyl)thiazol-2-ylamino)-2-methylpyrimidin-4-yl)piperazin-1-yl)acetic acid] | 6.3% | 9.4% | 2.7% | 14.0% | 18.2% | 0.06% | 2.2% | 0.3% | 2.8% |
| Cc1nc(Nc2ncc(C(=O)Nc3c(C)cc(O)cc3Cl)s2)cc(N2CCN(CCO)CC2)n1 [M20 (V)] | 2.4% | 3.5% | 2.8% | 11.7% | 15.2% | 0.02% | 0.6% | 0.3% | 2.7% |
| Cc1nc(Nc2ncc(C(=O)Nc3c(Cl)cccc3CO)s2)cc(N2CCN(CCO)CC2)n1 [M24 (VI), N-(2-chloro-6-(hydroxymethyl)phenyl)-2-(6-(4-(2-hydroxyethyl)piperazin-1-yl)-2-methylpyrimidin-4-ylamino)thiazole-5-carboxamide] | 3.0% | 4.4% | 0.7% | 6.6% | 8.6% | 0.06% | 1.9% | 0.1% | 1.4% |
| Cc1nc(Nc2ncc(C(=O)Nc3c(C)cccc3Cl)s2)cc(N2CCN(CCO)CC2)n1 [Parent (I), N-(2-Chloro-6-methylphenyl)-2-[[6-[4-(2-hydroxyethyl)-1-piperazinyl]-2-methyl-4-pyrimidinyl]amino]-5-thiazolecarboxamide] | 3.2% | 4.7% | 32.1% | 24.7% | 32.2% | 0.6% | 21.2% | 0.1% | 1.4% |

Reference: patent US20060211705A1, “'N-(2-chloro-6-methylphenyl)-2-[[6-[4-(2-hydroxyethyl)-1-piperazinyl]-2-methyl-4-pyrimidinyl]amino]-5-thiazolecarboxamides metabolites” (priority 2005, published 2006)
